This assay relates to KRAS PDC tumor spheroids (HUVEC+MSC), viability. Briefly: Anticancer human tumor 254851-301-R-J1-PDC patient-derived colon carcinoma cell line growth inhibition [KRAS2]. The settings on record: for viability, T/C: stronger effect = lower value. The gist of the method:
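Combination screen of spheroid viability in tumor-cell co-cultures with endothelial (HUVEC) and mesenchymal stem cell stroma. Each agent was tested in half-log dilutions, topping at clinical Cmax or at 10 microM without a known Cmax.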

Where [1] appears, read: curve of first compound, second compound 0.1 µM.
[2] abbreviates: curve of first compound, second compound 0.316 µM.
Setting [3] is: curve of first compound, second compound 1 µM.
[4] abbreviates: curve of first compound, second compound 3.16 µM.
Setting [5] is: curve of first compound, second compound 10 µM.
Where [6] appears, read: second compound 0.1 µM, first compound 0.0316 µM.
Where [7] appears, read: second compound 0.1 µM, first compound 0.1 µM.
Where [8] appears, read: second compound 0.1 µM, first compound 0.316 µM.
Where [9] appears, read: second compound 0.1 µM, first compound 1 µM.
Where [10] appears, read: second compound 0.1 µM, first compound 3.16 µM.
Where [11] appears, read: second compound 0.1 µM, first compound 10 µM.
Setting [12] is: second compound 0.316 µM, first compound 0.0316 µM.
Setting [13] is: second compound 0.316 µM, first compound 0.1 µM.
The mark [14] stands for this setting: second compound 0.316 µM, first compound 0.316 µM.
Where [15] appears, read: second compound 0.316 µM, first compound 1 µM.
Setting [16] is: second compound 0.316 µM, first compound 3.16 µM.
The mark [17] stands for this setting: second compound 0.316 µM, first compound 10 µM.
Where [18] appears, read: second compound 1 µM, first compound 0.0316 µM.
Where [19] appears, read: second compound 1 µM, first compound 0.1 µM.
Where [20] appears, read: second compound 1 µM, first compound 0.316 µM.
The mark [21] stands for this setting: second compound 1 µM, first compound 1 µM.
Setting [22] is: second compound 1 µM, first compound 3.16 µM.
[23] abbreviates: second compound 1 µM, first compound 10 µM.
The mark [24] stands for this setting: second compound 3.16 µM, first compound 0.0316 µM.
Where [25] appears, read: second compound 3.16 µM, first compound 0.1 µM.
[26] abbreviates: second compound 3.16 µM, first compound 0.316 µM.
[27] abbreviates: second compound 3.16 µM, first compound 1 µM.
[28] abbreviates: second compound 3.16 µM, first compound 3.16 µM.
[29] abbreviates: second compound 3.16 µM, first compound 10 µM.
Setting [30] is: second compound 10 µM, first compound 0.0316 µM.
Setting [31] is: second compound 10 µM, first compound 0.1 µM.
The mark [32] stands for this setting: second compound 10 µM, first compound 0.316 µM.
Setting [33] is: second compound 10 µM, first compound 1 µM.
Where [34] appears, read: second compound 10 µM, first compound 3.16 µM.
The mark [35] stands for this setting: second compound 10 µM, first compound 10 µM.

These results are taken from PubChem BioAssay AID1963868 (Molecular Pharmacology Branch, DTP, NCI, 2024).

Molecules are shown by their SMILES. Values joined by “and” are separate entries in the source; they are usually repeats but may differ in a detail not shown here. Equal entries are not always repeated. A value given as a limit tells only on which side of the number the result lay.
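Also: spheroids exposed to compounds for seven days before readout.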
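For viability, T/C in this document: 100% = DMSO vehicle control luminescence of the spheroids.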

Regarding `CC1OCC2(CCN(c3cnc(Sc4ccnc(N)c4Cl)c(N)n3)CC2)C1N` (stereo not given) + C=CC(=O)N1CCN(c2nc(=O)n(-c3c(C)ccnc3C(C)C)c3nc(-c4c(O)cccc4F)c(F)cc23)C(C)C1, the IC50 under setting [1] is more than 10 µM; the IC50 under setting [2] is more than 10 µM; the IC50 under setting [3] was more than 10 µM; the IC50 under setting [4] was more than 10 µM; the IC50 under setting [5] was more than 10 µM. The viability, T/C runs as follows: under setting [6], 95%; under setting [7], 91%; under setting [8], 81.6%; under setting [9], 60.2%; under setting [10], 67.2%; under setting [11], 61.9%. In addition, the viability, T/C runs as follows: under setting [12], 78%; under setting [13], 99.2%; under setting [14], 75.4%; under setting [15], 71.4%; under setting [16], 60.5%; under setting [17], 68.7%. The viability, T/C under setting [18] was 94.6%; the viability, T/C under setting [19] was 84.7%; the viability, T/C under setting [20] was 76.3%; the viability, T/C under setting [21] is 74.1%; the viability, T/C under setting [22] was 67.8%; the viability, T/C under setting [23] was 67.5%. The viability, T/C under setting [24] is 92.6%; the viability, T/C under setting [25] was 71.1%; the viability, T/C under setting [26] was 81.5%; the viability, T/C under setting [27] is 63.9%; the viability, T/C under setting [28] is 72.2%; the viability, T/C under setting [29] is 65.6%. Further, the viability, T/C reads like this: under setting [30], 80.7%; under setting [31], 70.8%; under setting [32], 58.9%; under setting [33], 55.6%; under setting [34], 56%; under setting [35], 66.3%.
With `COc1cc(Nc2ncc3c(n2)-c2ccc(Cl)cc2C(c2c(F)cccc2OC)=NC3)ccc1C(=O)O`, the viability, T/C was 80.7% [middle of 5 runs] (compound 0.0316 µM); 41.5% [middle of 5 runs] (compound 0.1 µM); 32.4% [middle of 5 runs] (compound 0.316 µM); 28.5% [middle of 5 runs] (compound 1 µM); 18.7% [middle of 5 runs] (compound 3.16 µM); 10.7% [middle of 5 runs] (compound 10 µM). Under “curve of compound”, the IC50 was 89.4 nM [middle of 5 runs].
Regarding `CC1OCC2(CCN(c3cnc(Sc4ccnc(N)c4Cl)c(N)n3)CC2)C1N` (stereo not given), the viability, T/C by setting is: (compound 0.0316 µM) 91.3% and 92.3% and 111%; (compound 0.1 µM) 96.8% [middle of 19 runs]; (compound 1 µM) 82.1% [middle of 19 runs]. Further, the IC50 was more than 10 µM (compound alone, run of 07/12/2021); more than 10 µM (compound alone, run of 07/19/2021); > 10 µM and 3.88 µM (compound alone, run of 07/26/2021); more than 10 µM (curve of compound).
`CC1COCCN1c1cc(-c2ccnn2C)c2ccnc(-c3ccn[nH]3)c2n1` (stereo not given): the viability, T/C reads like this: (compound 0.01 µM) 99.3% [middle of 5 runs]; (compound 0.316 µM) 47.7% [middle of 5 runs]; (compound 1 µM) 38.6% [middle of 5 runs]; (compound 3.16 µM) 24.1% [middle of 5 runs].
As to `CN(C)C/C=C/C(=O)Nc1cc2c(Nc3ccc(F)c(Cl)c3)ncnc2cc1O[C@H]1CCOC1` + COc1cc2nc(C)nc(NC(C)c3cc(N)cc(C(F)(F)F)c3)c2cc1OC1CCOC1, the IC50 under setting [1] was more than 0.1 µM; the IC50 under setting [2] is more than 0.1 µM; the IC50 under setting [3] is more than 0.1 µM; the IC50 under setting [4] was more than 0.1 µM; the IC50 under setting [5] is more than 0.1 µM. For the same compound, the viability, T/C by setting is: (second compound 0.1 µM, first compound 0.000316 µM) 104%; (second compound 0.1 µM, first compound 0.001 µM) 110%; (second compound 0.1 µM, first compound 0.00316 µM) 108%; (second compound 0.1 µM, first compound 0.01 µM) 102%; under setting [6], 96.5%; under setting [7], 75.3%. In addition, the viability, T/C (second compound 0.316 µM, first compound 0.000316 µM) is 102%; the viability, T/C (second compound 0.316 µM, first compound 0.001 µM) was 102%; the viability, T/C (second compound 0.316 µM, first compound 0.00316 µM) is 91.9%; the viability, T/C (second compound 0.316 µM, first compound 0.01 µM) is 87.9%; the viability, T/C under setting [12] is 88%; the viability, T/C under setting [13] was 74.7%. For the same compound, the viability, T/C runs as follows: (second compound 1 µM, first compound 0.000316 µM) 99.5%; (second compound 1 µM, first compound 0.001 µM) 101%; (second compound 1 µM, first compound 0.00316 µM) 92.7%; (second compound 1 µM, first compound 0.01 µM) 81.8%; under setting [18], 85.9%; under setting [19], 81.7%. For the same compound, the viability, T/C by setting is: (second compound 3.16 µM, first compound 0.000316 µM) 91%; (second compound 3.16 µM, first compound 0.001 µM) 85.3%; (second compound 3.16 µM, first compound 0.00316 µM) 89.7%; (second compound 3.16 µM, first compound 0.01 µM) 78.7%; under setting [24], 84.6%; under setting [25], 63.5%. For the same compound, the viability, T/C (second compound 10 µM, first compound 0.000316 µM) is 78.2%; the viability, T/C (second compound 10 µM, first compound 0.001 µM) is 78.9%; the viability, T/C (second compound 10 µM, first compound 0.00316 µM) is 81.6%; the viability, T/C (second compound 10 µM, first compound 0.01 µM) is 82.9%; the viability, T/C under setting [30] was 65.9%; the viability, T/C under setting [31] is 59.5%.
Consider `CC(=O)OC12COC1CC(O)C1(C)C(=O)C(O)C3=C(C)C(OC(=O)C(O)C(NC(=O)OC(C)(C)C)c4ccccc4)CC(O)(C(OC(=O)c4ccccc4)C21)C3(C)C` (stereo not given), for which the viability, T/C is, setting by setting: (compound 0.01 µM) 98.5% [middle of 5 runs]; (compound 0.0316 µM) 95.8% [middle of 5 runs]; (compound 0.1 µM) 68.8% [middle of 5 runs]; (compound 0.316 µM) 42.4% [middle of 5 runs]; (compound 1 µM) 28.1% [middle of 5 runs]; (compound 3.16 µM) 25.8% [middle of 5 runs]. For the setting “curve of compound”, the IC50 was 217 nM [middle of 5 runs].
As for `CC(C)NCC(C(=O)N1CCN(c2ncnc3c2C(C)CC3O)CC1)c1ccc(Cl)cc1` (stereo not given) + C=CC(=O)N1CCN(c2nc(=O)n(-c3c(C)ccnc3C(C)C)c3nc(-c4c(O)cccc4F)c(F)cc23)C(C)C1, the IC50 by setting is: under setting [1], more than 10 µM; under setting [2], more than 10 µM; under setting [3], more than 10 µM; under setting [4], more than 10 µM; under setting [5], more than 10 µM. Further, the viability, T/C was 98.2% under setting [6]; 105% under setting [7]; 92.1% under setting [8]; 98.6% under setting [9]; 98.4% under setting [10]; 97% under setting [11]. Moreover, the viability, T/C was 97.4% under setting [12]; 92.6% under setting [13]; 91.7% under setting [14]; 96.4% under setting [15]; 89.2% under setting [16]; 89.8% under setting [17]. For the same compound, the viability, T/C is 96.9% under setting [18]; 99.9% under setting [19]; 93% under setting [20]; 86.1% under setting [21]; 92.5% under setting [22]; 91.2% under setting [23]. Also, the viability, T/C under setting [24] was 98.1%; the viability, T/C under setting [25] is 105%; the viability, T/C under setting [26] is 95.5%; the viability, T/C under setting [27] is 98.1%; the viability, T/C under setting [28] was 93.8%; the viability, T/C under setting [29] was 88.4%. The viability, T/C runs as follows: under setting [30], 98.7%; under setting [31], 102%; under setting [32], 92.1%; under setting [33], 85.4%; under setting [34], 93.4%; under setting [35], 94.7%.
